38 compounds from patent US5138069A (E. I. Du Pont de Nemours and Company, priority 1988, dated 1992) can be followed below.

The target of experiment [1] is AII receptor. The experiment can be described thus: Angiotensin II receptor binding (displacement of 3H-AII). The settings on record: read-out: Angiotensin II Receptor Binding IC50, rat adrenal cortical microsomes, 2 nM 3H-AII, 1 hour, room temperature. On the procedure:
The assay was carried out according to the method described by [Glossmann et al., J. Biol. Chem., 249, 825 (1974)], but with some modifications. The reaction mixture contained rat adrenal cortical microsomes (source of AII receptor) in Tris buffer and 2 nM of ^3 H-AII with or without potential AII antagonist. This mixture was incubated for 1 hour at room temperature and the reaction was subsequently terminated by rapid filtration and rinsing through glass micro-fibre filter. Receptor-bound ^3 H-AII trapped in filter was quantitated by scintillation counting.
(§1) Compounds listed in Table 26 were tested in the same manner as described for Table 25, except that in the test for antihypertensive effects in renal hypertensive rats, the compounds were administered orally at 30 mg/kg and intravenously at 3 mg/kg.
In general terms: In a radioligand displacement assay an active substance lowers the binding of a labelled ligand.

In experiment [2] the test system is Renal Hypertensive Rats. The experiment can be described thus: Antihypertensive effects in renal hypertensive rats.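 As to all read-outs here: effective means a significant fall in blood pressure at the dose shown or below.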 The class given is in vivo. The settings on record: Rattus norvegicus; for minimal effective dose at 10 mg/kg / minimal effective dose at 100 mg/kg: Table 25; for minimal effective dose at 10 mg/kg: 10 mg/kg or less; for minimal effective dose at 100 mg/kg: 100 mg/kg or less. The method, then: This procedure increases blood pressure by increasing renin production with consequent elevation of AII levels. Compounds are administered orally at 100 mg/kg and/or intravenously via a cannula in the jugular vein at 10 mg/kg. Arterial blood pressure is continuously measured directly through a carotid artery cannula and recorded using a pressure transducer and a polygraph. Blood pressure levels after treatment are compared to pretreatment levels to determine the antihypertensive effects of the compounds (See Table 25).
as §1

[3] abbreviates: Table 25, tested as sodium salt.

Like-named read-outs stand apart in the source and are kept apart here.

With `CCCCc1nc(Cl)c(CC(=O)OC)n1Cc1ccc(NC(=O)[C@@H]2CCCC[C@@H]2NS(=O)(=O)C(F)(F)F)cc1` (relative stereo) [Example 74 (cis compound), methyl 2-butyl-4-chloro-1-[4-(cis-2-(trifluoromethanesulfonamido)cyclohexanecarboxamido)benzyl]imidazole-5-acetate], the IC50 (as a rule, the concentration that inhibits the measured activity by half) in experiment [1] (Table 25) stood at 4.5 µM. Moreover, in experiment [2] (intravenous), the minimal effective dose – broadly, the smallest amount tested that counted as effective – at 10 mg/kg was under 10 mg/kg. For the same compound, the minimal effective dose at 100 mg/kg in experiment [2] (oral) is over 100 mg/kg.

As to `CCCCc1nc(Cl)c(CC(=O)OC)n1Cc1ccc(NC(=O)[C@@H]2CCCC[C@H]2NS(=O)(=O)C(F)(F)F)cc1` (relative stereo) [Example 74 (trans compound), Methyl 2-butyl-4-chloro-1-[4-(trans-2-(trifluoromethanesulfonamido)cyclohexanecarboxamido)benzyl]imidazole-5-acetate], the IC50 in experiment [1] (Table 25) was found to be 3.9 µM. The compound also showed a minimal effective dose at 10 mg/kg in experiment [2] (intravenous) of under 10 mg/kg. In experiment [2] (oral), the minimal effective dose at 100 mg/kg was over 100 mg/kg.

With `CCCCc1nc(CO)c(Cl)n1Cc1ccc(-c2occc2C(=O)O)cc1` (single isomer, unassigned) [Example 179, 2-n-butyl-1-[4-(3-carboxyfuran-2-yl)benzyl]-5-chloro-4-(hydroxymethyl)imidazole], the IC50 in experiment [1] (Table 25) is 4.4 µM. In experiment [2] (intravenous), this compound gave a minimal effective dose at 10 mg/kg of under 10 mg/kg. Moreover, the minimal effective dose at 100 mg/kg in experiment [2] (oral) is over 100 mg/kg.

Take `CCCCc1nc(Cl)c(CC(C)C(=O)N[C@H](C)c2ccccc2)n1Cc1ccc(NC(=O)c2ccccc2C(=O)O)cc1` (single isomer, unassigned) [Example 238, d and l 3-[1-(4-(2-Carboxybenzamido)benzyl-2-butyl-4-chloroimidazol-5-yl]-2-methylpropanoic acid, d-(+)-α-methylbenzylamide]: the IC50 in experiment [1] (Table 25) came to 0.11 µM. Moreover, in experiment [2] (intravenous), the minimal effective dose at 10 mg/kg was under 10 mg/kg. Also, the minimal effective dose at 100 mg/kg in experiment [2] (oral) is over 100 mg/kg.

For `CCCCc1nc(Cl)c(CC(C)C(=O)N[C@H](C)c2ccccc2)n1Cc1ccc(NC(=O)c2ccccc2C(=O)O)cc1` (single isomer, unassigned) [Example 239, d and l 3-[1-(4-(2-Carboxybenzamido)benzyl-2-butyl-4-chloroimidazol-5-yl]-2-methylpropanoic acid, d-(+)-α-methylbenzylamide], the IC50 in experiment [1] (Table 25) is 0.12 µM.

With `CCCCc1nc(Cl)c(CC(=O)OC)n1Cc1ccc(NC(=O)/C=C\C(=O)O)cc1` [Example 6], the IC50 in experiment [1] (Table 25) is 5.7 µM.

With `CCCCc1nc(Cl)c(CC(=O)OC)n1Cc1ccc(NC(=O)c2cc3ccccc3cc2C(=O)O)cc1` [Example 9], the IC50 in experiment [1] (setting [3]) was 5.8 µM.

Take `CCCCc1nc(Cl)c(COC(C)=O)n1Cc1ccc(NC(=O)c2ccccc2C(=O)O)cc1` [Example 10]: in experiment [1] (setting [3]), the IC50 is 0.19 µM.

On to `CCCCc1nc(Cl)c(COC(C)=O)n1Cc1ccc(C(=O)O)cc1` [Example 20, 5-Acetoxymethyl-2-butyl-1-(4-carboxybenzyl)-4-chloroimidazole], for which the IC50 in experiment [1] (setting [3]) turned out to be 5.3 µM.

Regarding `CCCCc1nc(Cl)c(CC(=O)O)n1Cc1ccc(NS(=O)(=O)C(F)(F)F)cc1` [Example 25], in experiment [1] (Table 25), the half-maximal inhibitory concentration (IC50) is 3.9 µM.

Consider `CCCCc1nc(Cl)c(CO)n1Cc1ccc(N2C(=O)c3ccccc3C2=O)cc1` [Example 28, 2-Butyl-4-chloro-5-hydroxymethyl-1-(4-N-phthalimidobenzyl)imidazole], for which the IC50 in experiment [1] (Table 25) was found to be 8 µM.

On to `CCCCc1nc(Cl)c(CC(=O)O)n1Cc1ccc(NC(=O)c2ccccc2NS(=O)(=O)C(F)(F)F)cc1` [Example 31, 2-Butyl-4-chloro-1-[4-((N-trifluoromethanesulfonyl)anthranilamido)benzyl]imidazole-5-acetic acid], for which, in experiment [1] (Table 25), the IC50 is 0.64 µM.

On to `CCCCc1nc(Cl)c(CC(=O)O)n1Cc1ccc(NC(=O)c2ccccc2C(=O)O)cc1` [Example 32, 2-Butyl-1-[4-(2-carboxybenzamido)-benzyl]-4-chloroimidazole-5-acetic acid], for which the IC50 in experiment [1] (setting [3]) is 0.43 µM.

With `CCCCc1nc(Cl)c(CC(=O)OC)n1Cc1ccc(NC(=O)c2cccc(NS(=O)(=O)C(F)(F)F)c2)cc1` [Example 33], the IC50 in experiment [1] (Table 25) came to 0.94 µM.

In the case of `CCCCc1nc(Cl)c(Cc2nn[nH]n2)n1Cc1ccc(NC(=O)c2ccccc2NS(=O)(=O)C(F)(F)F)cc1` [Example 52], the IC50 in experiment [1] (Table 25) amounted to 1.1 µM.

For `COCCc1nc(Cl)c(CO)n1Cc1ccc(NC(=O)c2ccccc2NS(=O)(=O)C(F)(F)F)cc1` [Example 56, 4-Chloro-5-hydroxymethyl-2-(2-methoxyethyl)-1-[4-((N-trifluoromethanesulfonyl)anthranilamido)benzyl]imidazole], the IC50 in experiment [1] (Table 25) was 4.4 µM.

With `CCCCCc1nccn1Cc1ccc(NC(=O)c2ccccc2NS(=O)(=O)C(F)(F)F)cc1` [Example 60], in experiment [1] (Table 25), the IC50 was 1.2 µM.

Consider `O=C(Nc1ccc(Cn2ccnc2CC2CCCCC2)cc1)c1ccccc1NS(=O)(=O)C(F)(F)F` [Example 61], for which the IC50 in experiment [1] (Table 25) came to 5 µM.

With `CCc1nccn1Cc1ccc(NC(=O)c2ccccc2C(=O)O)cc1` [Example 62], the IC50 in experiment [1] (setting [3]) is 9.2 µM.

Take `O=C(O)c1ccccc1C(=O)Nc1ccc(Cn2ccnc2CC2CCCCC2)cc1` [Example 71]: the IC50 in experiment [1] (Table 25) was 2.8 µM.

As to `CCCCc1nc(Cl)c(COC)n1Cc1ccc(C(=O)N[C@@H](Cc2ccccc2)C(=O)O)cc1` [Example 82], in experiment [1] (Table 25), the IC50 is 6.1 µM.

In the case of `CCCCc1nc(Cl)c(COC)n1Cc1ccc(C(=O)N2CCC[C@H]2C(=O)O)cc1` [Example 83], in experiment [1] (Table 25), the IC50 was 6.4 µM.

`CCc1nc(Cl)c(CO)n1Cc1ccc(-c2ccccc2C(=O)O)cc1` [Example 107]: the IC50 in experiment [1] (Table 25) turned out to be 1.7 µM.

In the case of `CCCc1nc(Cl)c(CO)n1Cc1ccc(-c2ccccc2-c2nn[nH]n2)cc1` [Example 113], the IC50 in experiment [1] (Table 25) turned out to be 0.02 µM.

As for `CCCc1nc(C(F)(F)C(F)(F)F)c(CO)n1Cc1ccc(-c2ccccc2-c2nn[nH]n2)cc1` [Example 124F], the IC50 in experiment [1] (Table 26) is 0.001 µM.

Take `CCC=Cc1nc(Cl)c(CO)n1Cc1ccc(-c2ccccc2-c2nnn[nH]2)cc1` [Example 139]: the IC50 in experiment [1] (Table 26) worked out at 0.011 µM.

As for `CCCCc1nc(Cl)c(Cn2ccnc2)n1Cc1ccc(C(=O)c2ccccc2C(=O)O)cc1` [Example 205], the IC50 in experiment [1] (setting [3]) was 2.5 µM.

Regarding `CCCCc1nc(Cl)c(CN=[N+]=[N-])n1Cc1ccc(C(=O)c2ccccc2C(=O)O)cc1` [Example 206], the IC50 in experiment [1] (setting [3]) was found to be 1.4 µM.

As for `CCCCc1nc(Cl)c(CNS(=O)(=O)C(F)(F)F)n1Cc1ccc(C(=O)c2ccccc2C(=O)O)cc1` [Example 217, 2-Butyl-1-[4-(2-carboxybenzoyl)benzyl]-4-chloro-5-[(trifluoromethylsulfonamido)methyl]imidazole], the IC50 in experiment [1] (setting [3]) is 2.7 µM.

On to `CCCCc1nc(Cl)c(/C=C/C(=O)OCC)n1Cc1ccc(NC(=O)c2ccccc2C(=O)O)cc1` [Example 228, 3-[2-Butyl-4-chloro-1-(4-(2-carboxybenzamido)benzyl)imidazol-5-yl]-propenoic acid ethyl ester, E isomer], for which the IC50 in experiment [1] (Table 25) was found to be 0.53 µM.

Regarding `CCCCc1nc(Cl)c(/C=C/COC(C)=O)n1Cc1ccc(NC(=O)c2ccccc2C(=O)O)cc1` [Example 231, 3-[2-Butyl-4-chloro-1-(4-(2-carboxybenzamido)benzyl)imidazol-5-yl]-3-propen-1-ol acetate, E isomer], the IC50 in experiment [1] (Table 25) was found to be 0.076 µM.

Turning to `CCCCc1nc(Cl)c(/C=C/CO)n1Cc1ccc(NC(=O)c2ccccc2C(=O)O)cc1` [Example 241], the IC50 in experiment [1] (Table 25) turned out to be 0.17 µM.

As for `CCCCc1nc(Cl)c(/C=C/C(C)O)n1Cc1ccc(NC(=O)c2ccccc2C(=O)O)cc1` (stereo not shown) [Example 243], in experiment [1] (Table 25), the IC50 came to 0.2 µM.

Consider `CCCCc1nc(Cl)c(CCCOC(C)=O)n1Cc1ccc(NC(=O)c2ccccc2C(=O)O)cc1` [Example 247], for which the IC50 in experiment [1] (Table 25) came out at 0.11 µM.

Consider `CCCc1nc(-c2ccccc2)c(C=O)n1Cc1ccc(-c2ccccc2C(=O)O)cc1` [Example 322], for which the minimal effective dose at 3 mg/kg in experiment [2] (Table 26, intravenous, 3 mg/kg) was under 3 mg/kg. The same compound came in with a minimal effective dose at 30 mg/kg in experiment [2] (Table 26, oral, 30 mg/kg) of under 30 mg/kg.

With `CCCCc1nc(CO)c(Cl)n1Cc1ccc(-c2ccccc2-c2n[nH]c(C(F)(F)F)n2)cc1` [Example 341, 2-n-Butyl-5-chloro-4-hydroxy-methyl-1-[(2'-(5-trifluoromethyl-1,2,4-triazol-3-yl)biphenyl-4-yl)methyl]imidazole], the minimal effective dose at 10 mg/kg in experiment [2] (intravenous) was under 10 mg/kg. Moreover, in experiment [2] (oral), the minimal effective dose at 100 mg/kg is under 100 mg/kg.

As for `CCCCc1nc(C#N)c(C(N)=O)n1Cc1ccc(-c2ccccc2-c2nnn[nH]2)cc1` [Example 342, 2-n-Butyl-5-carboxamido-4-cyano-1-[(2'-(1H-tetrazol-5-yl)biphenyl-4-yl)methyl]imidazole], in experiment [1] (Table 26), the IC50 stood at 0.037 µM.

Take `CCCCc1nc(Cl)c(CN2CCN(c3ccccc3OC)CC2)n1Cc1ccc(-c2ccccc2-c2nnn[nH]2)cc1` [Example 354, 2-n-Butyl-4-chloro-5-[(4-(2-methoxyphenyl)piperazin-1-yl)methyl]-1-[(2'-(1H-tetrazol-5-yl)biphenyl-4-yl)methyl]imidazole]: the IC50 in experiment [1] (Table 25) and in experiment [1] (Table 26) was 0.35 µM throughout.
